Assay results reported in the supplement of paper PMC11061612.

Experiments:
[1] = tested on: BB49-HNC (Head and Neck Carcinoma); assay: Bliss excess, mean over the matrix (fraction); higher = more synergy
Method in brief: (§1)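 Cell lines grown in DMEM/F12 or RPMI with 10% FBS were plated in 1536-well plates and held 24 hours at 37°C, 5% CO2 before 72 hours of exposure to two-drug dose matrices, with DMSO typically at 0.2%. CellTiter-Glo 2.0 luminescence gave viability, which was converted to inhibition. Vehicle wells were set to 0 and blank wells to 1. Combination Emax is the second-highest inhibition in the matrix, and Bliss excess is the observed combination effect minus the expected EA + EB − EA·EB, where EA and EB are the single-agent effects.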

[2] = tested on: NB(TU)1-10 (Neuroblastoma); assay: as above
Method in brief: as §1

[3] = tested on: NCI-H211 (Small Cell Lung Carcinoma); assay: as above
Method in brief: as §1

[4] = tested on: BB49-HNC (Head and Neck Carcinoma); assay: combination Emax (second highest fraction inhibited in the dose matrix, 72 h); higher = more inhibition; extreme values may be limits of the assay
Method in brief: as §1

[5] = tested on: COR-L95 (Small Cell Lung Carcinoma); assay: as above
Method in brief: as §1

[6] = tested on: NB(TU)1-10 (Neuroblastoma); assay: as above
Method in brief: as §1

[7] = tested on: NCI-H211 (Small Cell Lung Carcinoma); assay: as above
Method in brief: as §1

[8] = tested on: TGBC24TKB (Biliary Tract Carcinoma); assay: as above
Method in brief: as §1
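Wherever Bliss excess, mean over the matrix is given: after 72 h of two-drug dosing.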

| Compound | Bliss excess [1] | Bliss excess [2] | Bliss excess [3] | combination Emax [4] | combination Emax [5] | combination Emax [6] | combination Emax [7] | combination Emax [8] |
| --- | --- | --- | --- | --- | --- | --- | --- | --- |
| CN(C)CCCOc1ccc(-c2ccc3ncc4c(c3c2)n(C2CCOCC2)c(=O)n4C)cn1 [AZD0156] + O=C(c1cc(Cc2n[nH]c(=O)c3ccccc23)ccc1F)N1CCN(C(=O)C2CC2)CC1 [Olaparib] (first compound max 3 µM, partner max 3 µM) | 0.165 | -0.037 | 0.0397 | 0.598 | 0.373 | 0.356 | 0.598 | 0.457 |
| C=CCn1c(=O)c2cnc(Nc3ccc(N4CCN(C)CC4)cc3)nc2n1-c1cccc(C(C)(C)O)n1 [AZD1775] + C1CN(CCC1(C(=O)N[C@@H](CCO)C2=CC=C(C=C2)Cl)N)C3=NC=NC4=C3C=CN4 [Capivasertib] (first compound max 3 µM, partner max 3 µM) | -0.0204 | -0.0584 | -0.0643 | 0.936 | 0.666 | 0.583 | 0.901 | 0.811 |
| CCN(CCO)CCCOc1ccc2c(Nc3cc(CC(=O)Nc4cccc(F)c4)[nH]n3)ncnc2c1 [AZD2811] + C=CCn1c(=O)c2cnc(Nc3ccc(N4CCN(C)CC4)cc3)nc2n1-c1cccc(C(C)(C)O)n1 [AZD1775] (first compound max 1 µM, partner max 1 µM) |  | 0.0337 |  |  | 0.655 | 0.881 |  | 0.651 |
| CCN(CCO)CCCOc1ccc2c(Nc3cc(CC(=O)Nc4cccc(F)c4)[nH]n3)ncnc2c1 [AZD2811] + C[C@@H]1COCCN1C2=NC(=NC(=C2)C3(CC3)[S@](=N)(=O)C)C4=C5C=CNC5=NC=C4 [AZD6738] (first compound max 1 µM, 7x7, partner max 10 µM) |  | -0.063 |  |  | 0.533 | 0.756 |  | 0.746 |
| CCN(CCO)CCCOc1ccc2c(Nc3cc(CC(=O)Nc4cccc(F)c4)[nH]n3)ncnc2c1 [AZD2811] + O=C(c1cc(Cc2n[nH]c(=O)c3ccccc23)ccc1F)N1CCN(C(=O)C2CC2)CC1 [Olaparib] (first compound max 1 µM, 7x7, partner max 10 µM) |  | 0.0344 |  |  | 0.436 | 0.257 |  | 0.564 |
| C[C@@H]1COCCN1c1cc(C2([S@](C)(=N)=O)CC2)nc(-c2ccnc3[nH]ccc23)n1 [AZD6738] + O=C(c1cc(Cc2n[nH]c(=O)c3ccccc23)ccc1F)N1CCN(C(=O)C2CC2)CC1 [Olaparib] (first compound max 10 µM, 7x7, partner max 10 µM) |  | 0.0254 |  |  | 0.517 | 0.751 |  | 0.693 |
| Cc1cc2ncnn2cc1Nc1ncc2c(n1)n(C1CCOCC1)c(=O)n2C [AZD7648] + C=CCn1c(=O)c2cnc(Nc3ccc(N4CCN(C)CC4)cc3)nc2n1-c1cccc(C(C)(C)O)n1 [AZD1775] (first compound max 10 µM, partner max 1 µM) |  | -0.062 |  |  | 0.583 | 0.824 |  | 0.786 |
| Cc1cc2ncnn2cc1Nc1ncc2c(n1)n(C1CCOCC1)c(=O)n2C [AZD7648] + CCN(CCO)CCCOc1ccc2c(Nc3cc(CC(=O)Nc4cccc(F)c4)[nH]n3)ncnc2c1 [AZD2811] (first compound max 10 µM, 7x7, partner max 1 µM) |  | -0.0403 |  |  | 0.256 | 0.297 |  | 0.566 |
| Cc1cc2ncnn2cc1Nc1ncc2c(n1)n(C1CCOCC1)c(=O)n2C [AZD7648] + CN(C)CCCOc1ccc(-c2ccc3ncc4c(c3c2)n(C2CCOCC2)c(=O)n4C)cn1 [AZD0156] (first compound max 10 µM, 7x7, partner max 1 µM) |  | 0.0361 |  |  | 0.233 | 0.322 |  | 0.357 |
| Cc1cc2ncnn2cc1Nc1ncc2c(n1)n(C1CCOCC1)c(=O)n2C [AZD7648] + C[C@@H]1COCCN1C2=NC(=NC(=C2)C3(CC3)[S@](=N)(=O)C)C4=C5C=CNC5=NC=C4 [AZD6738] (first compound max 10 µM, 7x7, partner max 10 µM) |  | -0.0214 |  |  | 0.621 | 0.713 |  | 0.786 |
| Cc1cc2ncnn2cc1Nc1ncc2c(n1)n(C1CCOCC1)c(=O)n2C [AZD7648] + O=C(c1cc(Cc2n[nH]c(=O)c3ccccc23)ccc1F)N1CCN(C(=O)C2CC2)CC1 [Olaparib] (first compound max 10 µM, 7x7, partner max 10 µM) |  | -0.0408 |  |  | 0.363 | 0.263 |  | 0.276 |
| COc1cccc2c1C(=O)c1c(O)c3c(c(O)c1C2=O)C[C@@](O)(C(=O)CO)C[C@@H]3O[C@H]1C[C@H](N)[C@H](O)[C@H](C)O1 [Doxorubicin] + Cc1cc2ncnn2cc1Nc1ncc2c(n1)n(C1CCOCC1)c(=O)n2C [AZD7648] (first compound max 1 µM, 7x7, partner max 10 µM) |  | 0.0954 |  |  | 0.865 | 0.793 |  | 0.318 |
| COc1cccc(OCCCN)c1-c1cc(Nc2cnc(C#N)cn2)n[nH]1 [Prexasertib] + C=CCn1c(=O)c2cnc(Nc3ccc(N4CCN(C)CC4)cc3)nc2n1-c1cccc(C(C)(C)O)n1 [AZD1775] (first compound max 1 µM, partner max 1 µM) |  | -0.0039 |  |  | 0.736 | 0.965 |  | 0.896 |
| COc1cccc(OCCCN)c1-c1cc(Nc2cnc(C#N)cn2)n[nH]1 [Prexasertib] + CCc1c2c(nc3ccc(O)cc13)-c1cc3c(c(=O)n1C2)COC(=O)[C@]3(O)CC [SN-38] (first compound max 1 µM, 7x7, partner max 0.3 µM) |  | -0.0763 |  |  | 0.844 | 0.922 |  | 0.852 |
| COc1cccc(OCCCN)c1-c1cc(Nc2cnc(C#N)cn2)n[nH]1 [Prexasertib] + CN(C)CCCOc1ccc(-c2ccc3ncc4c(c3c2)n(C2CCOCC2)c(=O)n4C)cn1 [AZD0156] (first compound max 1 µM, 7x7, partner max 1 µM) |  | -0.0519 |  |  | 0.644 | 0.934 |  | 0.863 |
| COc1cccc(OCCCN)c1-c1cc(Nc2cnc(C#N)cn2)n[nH]1 [Prexasertib] + C[C@@H]1COCCN1C2=NC(=NC(=C2)C3(CC3)[S@](=N)(=O)C)C4=C5C=CNC5=NC=C4 [AZD6738] (first compound max 1 µM, 7x7, partner max 10 µM) |  | -0.141 |  |  | 0.675 | 0.94 |  | 0.918 |
| COc1cccc(OCCCN)c1-c1cc(Nc2cnc(C#N)cn2)n[nH]1 [Prexasertib] + Cc1cc2ncnn2cc1Nc1ncc2c(n1)n(C1CCOCC1)c(=O)n2C [AZD7648] (first compound max 1 µM, 7x7, partner max 10 µM) |  | -0.0498 |  |  | 0.644 | 0.94 |  | 0.827 |
| COc1cccc(OCCCN)c1-c1cc(Nc2cnc(C#N)cn2)n[nH]1 [Prexasertib] + O=C(c1cc(Cc2n[nH]c(=O)c3ccccc23)ccc1F)N1CCN(C(=O)C2CC2)CC1 [Olaparib] (first compound max 1 µM, 7x7, partner max 10 µM) |  | -0.0874 |  |  | 0.682 | 0.885 |  | 0.835 |
| COc1cc2c(cc1OCCCCCOc1cc3c(cc1OC)C(=O)N1C=C(C)C[C@H]1C=N3)N=C[C@@H]1CC(C)=CN1C2=O [SG3199] + O=C(c1cc(Cc2n[nH]c(=O)c3ccccc23)ccc1F)N1CCN(C(=O)C2CC2)CC1 [Olaparib] (first compound max 0.001 µM, 7x7, partner max 10 µM) |  | -0.0149 |  |  | 0.431 | 0.187 |  | 0.126 |
| CCc1c2c(nc3ccc(O)cc13)-c1cc3c(c(=O)n1C2)COC(=O)[C@]3(O)CC [SN-38] + CN(C)CCCOc1ccc(-c2ccc3ncc4c(c3c2)n(C2CCOCC2)c(=O)n4C)cn1 [AZD0156] (first compound max 0.3 µM, 7x7, partner max 1 µM) |  | -0.0787 |  |  | 0.789 | 0.805 |  | 0.533 |
| CCc1c2c(nc3ccc(O)cc13)-c1cc3c(c(=O)n1C2)COC(=O)[C@]3(O)CC [SN-38] + O=C(c1cc(Cc2n[nH]c(=O)c3ccccc23)ccc1F)N1CCN(C(=O)C2CC2)CC1 [Olaparib] (first compound max 0.3 µM, 7x7, partner max 10 µM) |  | 0.0289 |  |  | 0.85 | 0.805 |  | 0.472 |
